Results published in article PMC9558907, “Synthesis and pharmacological evaluation of newly detected synthetic cannabinoid receptor agonists AB-4CN-BUTICA, MMB-4CN-BUTINACA, MDMB-4F-BUTICA, MDMB-4F-BUTINACA and their analogs” (Frontiers in Psychiatry, 2022).

Assays:
[1] = target: T1, human CB2 (Homo sapiens, UniProt P34972); assay: competitive radioligand binding assay, displacement of [3H]CP55,940, HEK cell membranes; set-up: expressed in transfected cells; host or cells: HEK293 cells, P2 membrane preparation; settings: [3H]CP55,940 1 nM
[2] = target: T1, human CB2; assay: fluorescence-based membrane potential assay (GIRK activation) in AtT20 cells; format: cell-based; set-up: expressed in transfected cells; host or cells: mouse AtT20 FlpIn cells; settings: for hCB2 Emax ±SEM: normalised to 1 μM CP55,940
[3] = target: T2, human CB1 (Homo sapiens, UniProt P21554); assay: as above; format: cell-based; set-up: expressed in transfected cells; host or cells: mouse AtT20 FlpIn cells; settings: for hCB1 maximal response at 10 μM (footnote d): highest concentration tested, curve not fitted; for hCB1 Emax ±SEM: normalised to 1 μM CP55,940
[4] = target: T2, human CB1; assay: competitive radioligand binding assay, displacement of [3H]CP55,940, HEK cell membranes; set-up: expressed in transfected cells; host or cells: HEK293 cells, P2 membrane preparation; settings: [3H]CP55,940 1 nM
[5] = hCB2 Ki, value in brackets after pKi
[6] = hCB2 EC50, AtT20-hCB2, value in brackets after pEC50
[7] = hCB1 pKi ±SEM, mean ± SEM of 3 to 6 independent experiments
[8] = AtT20-hCB1, DNC = did not converge, ND = < 50% change in fluorescence at 10 μM
[9] = hCB1 Ki, value in brackets after pKi
[10] = hCB1 EC50, AtT20-hCB1, value in brackets after pEC50

T2 sequence (P21554 whole entry): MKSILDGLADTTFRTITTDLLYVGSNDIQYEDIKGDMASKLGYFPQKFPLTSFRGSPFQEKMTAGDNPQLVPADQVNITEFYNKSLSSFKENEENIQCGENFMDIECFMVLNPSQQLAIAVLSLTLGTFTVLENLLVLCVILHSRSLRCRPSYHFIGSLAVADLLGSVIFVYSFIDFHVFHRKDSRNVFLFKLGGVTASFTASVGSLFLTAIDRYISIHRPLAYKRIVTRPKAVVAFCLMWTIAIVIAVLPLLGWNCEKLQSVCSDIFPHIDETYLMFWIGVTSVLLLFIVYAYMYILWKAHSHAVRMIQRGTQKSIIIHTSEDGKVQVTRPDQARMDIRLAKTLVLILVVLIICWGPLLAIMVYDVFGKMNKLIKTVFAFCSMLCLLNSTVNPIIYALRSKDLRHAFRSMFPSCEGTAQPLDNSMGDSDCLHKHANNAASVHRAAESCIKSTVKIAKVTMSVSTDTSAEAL
T1 sequence (P34972 whole entry): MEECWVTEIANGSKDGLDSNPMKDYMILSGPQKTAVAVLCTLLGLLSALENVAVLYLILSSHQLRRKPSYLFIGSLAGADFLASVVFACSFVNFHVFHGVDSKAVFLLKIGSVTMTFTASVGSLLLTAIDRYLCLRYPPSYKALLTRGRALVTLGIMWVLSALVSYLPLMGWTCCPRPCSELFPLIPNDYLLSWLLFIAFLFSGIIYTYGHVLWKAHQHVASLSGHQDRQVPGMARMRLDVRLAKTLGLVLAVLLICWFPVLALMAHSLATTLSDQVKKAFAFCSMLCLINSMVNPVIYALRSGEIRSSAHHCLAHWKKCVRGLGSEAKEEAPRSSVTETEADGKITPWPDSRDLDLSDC

| SMILES | melting point | Ki [1, 5] | hCB2 Emax ±SEM ([2]; AtT20-hCB2, listed as APP-4CN-BUT7AICA (16)) | EC50 [2, 6] | EC50 ([2]; hCB2 pEC50 ±SEM, AtT20-hCB2) | hCB1 maximal response at 10 μM (footnote d) ([3]; AtT20-hCB1) | hCB1 maximal response at 10 μM (footnote d) ([3]; AtT20-hCB1, listed as APP-4CN-BUT7AICA (16)) | Ki [4, 7] | hCB2 Emax ±SEM ([2]; AtT20-hCB2) | hCB1 maximal response at 10 μM (footnote d) ([3]; AtT20-hCB1, listed as APP-4CN-BUTICA (10)) | hCB1 pEC50 ±SEM [3, 8] | Ki [4, 9] | hCB1 Emax ±SEM ([3]; AtT20-hCB1) | EC50 [3, 10] | EC50 ([3]; hCB1 pEC50 ±SEM, AtT20-hCB1, DNC = did not converge, ND = < 50% change in fluorescence at 10 μM) | Ki ([1]; hCB2 pKi ±SEM, mean ± SEM of 3 to 6 independent experiments) | hCB1 maximal response at 10 μM (footnote d) ([3]; AtT20-hCB1, listed as APP-4F-BUT7AICA (33)) |
| --- | --- | --- | --- | --- | --- | --- | --- | --- | --- | --- | --- | --- | --- | --- | --- | --- | --- |
| N#CCCCCn1cc(C(=O)N[C@@H](Cc2ccccc2)C(N)=O)c2cccnc21 [Compound 16, (S)-N-(1-amino-1-oxo-3-phenylpropan-2-yl)-1-(4-cyanobutyl)-1H-pyrrolo[2,3-b]pyridine-3-carboxamide] | 182 to 184 °C | 1.86 µM | 72 ± 3 % CP55,940 | 0.232 µM | 0.229 µM | submaximal agonist activity | 25 ± 3^d % CP55,940 | > 10 µM |  |  |  |  |  |  |  |  |  |
| N#CCCCCn1cc(C(=O)N[C@@H](Cc2ccccc2)C(N)=O)c2ccccc21 [Compound 10, (S)-N-(1-amino-1-oxo-3-phenylpropan-2-yl)-1-(4-cyanobutyl)-1H-indole-3-carboxamide] | 84 to 85 °C | 0.776 µM |  | 0.0984 µM |  | submaximal agonist activity |  |  | 95 ± 3 % CP55,940 | 85 ± 3^d % CP55,940 | DNC^b | 3.31 µM |  |  |  |  |  |
| CC(C)(C)[C@H](NC(=O)c1cn(CCCCF)c2ccccc12)C(N)=O [Compound 26, (S)-N-(1-amino-3,3-dimethyl-1-oxobutan-2-yl)-1-(4-fluorobutyl)-1H-indole-3-carboxamide] | 92 to 94 °C | 0.008 µM |  | 0.0441 µM |  |  |  | 0.0347 µM | 105 ± 4 % CP55,940 |  |  |  | 110 ± 4 % CP55,940 | 0.0404 µM |  |  |  |
| CC(C)(C)[C@H](NC(=O)c1nn(CCCCC#N)c2ccccc12)C(N)=O [Compound 12, (S)-N-(1-amino-3,3-dimethyl-1-oxobutan-2-yl)-1-(4-cyanobutyl)-1H-indazole-3-carboxamide] | 82 to 86 °C | 0.00257 µM |  | 0.00176 µM |  |  |  |  | 96 ± 2 % CP55,940 |  |  | 0.00813 µM | 109 ± 2 % CP55,940 |  | 0.000331 µM |  |  |
| COC(=O)[C@@H](NC(=O)c1cn(CCCCC#N)c2ccccc12)C(C)(C)C [Compound 18, methyl (S)-2-(1-(4-cyanobutyl)-1H-indole-3-carboxamido)-3,3-dimethylbutanoate] | 124 to 127 °C | 0.00204 µM |  | 0.00404 µM |  |  |  |  | 101 ± 4 % CP55,940 |  |  | 0.00661 µM | 111 ± 3 % CP55,940 | 0.00268 µM |  |  |  |
| COC(=O)[C@H](Cc1ccccc1)NC(=O)c1cn(CCCCF)c2ccccc12 [Compound 35, methyl (1-(4-fluorobutyl)-1H-indole-3-carbonyl)-L-phenylalaninate] | 124 to 126 °C | 0.0061 µM |  | 0.0101 µM |  |  |  |  | 100 ± 2 % CP55,940 |  |  | 0.27 µM | 105 ± 2 % CP55,940 | 0.0366 µM |  | 0.00603 µM |  |
| NC(=O)[C@H](Cc1ccccc1)NC(=O)c1cn(CCCCF)c2ncccc12 [Compound 33, (S)-N-(1-amino-1-oxo-3-phenylpropan-2-yl)-1-(4-fluorobutyl)-1H-pyrrolo[2,3-b]pyridine-3-carboxamide] | 153 to 154 °C | 2.4 µM |  | 1.17 µM |  | submaximal agonist activity |  | > 10 µM | 99 ± 12 % CP55,940 |  |  |  |  |  |  |  | 25 ± 14^d % CP55,940 |
| COC(=O)[C@H](Cc1ccccc1)NC(=O)c1nn(CCCCC#N)c2ccccc12 [Compound 21, methyl (1-(4-cyanobutyl)-1H-indazole-3-carbonyl)-L-phenylalaninate] | 82.5 to 84.5 °C | 0.0038 µM |  | 0.00324 µM |  |  |  |  | 100 ± 2 % CP55,940 |  |  | 0.0209 µM | 115 ± 3 % CP55,940 | 0.00872 µM |  |  |  |
| CC(C)[C@H](NC(=O)c1cn(CCCCC#N)c2ncccc12)C(N)=O [Compound 14, (S)-N-(1-amino-3-methyl-1-oxobutan-2-yl)-1-(4-cyanobutyl)-1H-pyrrolo[2,3-b]pyridine-3-carboxamide] | 181 to 182 °C | 3.24 µM |  | 0.39 µM |  | 80 ± 3^d % CP55,940 |  |  | 87 ± 5 % CP55,940 |  | DNC^b | 2.57 µM |  |  |  |  |  |
